# Several values for one entry are separate records, joined by “and”; a condition that tells them apart may be missing. Equal entries are not always repeated. Entries after “also recorded” stand apart in the source; their conditions may differ. Where two headings read alike, the source gives them in different places.
# Legend:
# [1] = target: T1, pSTAT3-ubiquitin complexes in H1975 cells (Homo sapiens, UniProt P40763); experiment: p-STAT3 immunoprecipitation and ubiquitin immunoblot; format: cell-based; conditions: H1975, 100 nM, 24 hr post-transfection
# T1 construct: Post-transfection with either 100 nM CS3D or CS3M, H1975 were lysed in IP lysis buffer; endogenous in cells; host or cells: H1975
# [2] = system: Myc and Bcl-xL mRNA in NSCLC cells; conditions: 300 nM one transfection, 10 ng/ml EGF, 1 hr after EGF
# H1975 cells = experiment: MTS cell viability assay, H1975; format: cell-based, human; conditions: for IC50: MTS 72 hours
# Protocol: NSCLC cell lines (201T and H1975) were transfected with CS3D or CS3M (cyclic STAT3 mutant decoy) at concentrations ranging from 0 nM to 600 nM. Using MTS assays, cell viabilities were assessed 72 hours later. Three independent experiments were performed, using 24-well plates and 4 wells/concentration.
# To determine the concentration of CS3D required to inhibit cell viability, increasing concentrations of CS3D was transfected, and after 72 hours, MTS assays were used to assess cell viability. Data were normalized to cells treated with lipofectamine alone.
# Fluorescently-labeled CS3M and CS3D (with iFluor) were also produced using enzymatic ligation as described above and used to assess uptake efficiency. Transfections of the cyclic oligonucleotides were performed using Lipofectamine 2000 (Life Technologies) in opti-MEM media (Life Technologies) as follows: Cells were plated at […] confluency, and exposed to transfection media containing the respective circularized oligonucleotides for 24 hours at 37° C. Post-transfection, cell recovery was initiated in media containing 10% heat-inactivated fetal bovine serum.
# Dose-response experiments assessing the relative number of metabolically active viable cells were performed by transfecting cells with increasing concentrations of CS3D or CS3M, followed by performance of MTS assays. After 72 hours, 5 mg/ml of MTS reagent was added in the plates and incubated 37° C. for 20 minutes. The plates were then read at 490 nm in a Synergy microplate reader (BioTek, Winooski, Vermont) using Gen5 2.05 software. Data obtained following treatment with C3SD or CS3M were normalized to treatment with lipofectamine alone. […] To assess induction of apoptosis in response to CS3D, H1975 and 201T cells were transfected with 100 nM of CS3M or CS3D. After twenty four hours of transfection, cells were resuspended in annexin V-binding buffer, incubated with 5 μL of propidium iodide (BD Biosciences) and subjected to flow cytometric analysis, using a BD FACS Canto II Flow Cytometer.
# [3] = system: NNK-induced lung preneoplasias and tumors; experiment: NNK-induced lung tumor model for chemoprevention, second experiment; format: in vivo, mice
# Protocol: To confirm these findings, in a second experiment, in which 24 mg NNK was given (3 mg by ip injection, twice a wk, ×4 wks,), this was followed by one week rest and then immediate treatment with 5 mg/kg CS3D or CS3M, 3 daily injections per week, for 8 weeks. Then 1 week, 8 weeks, or 20 weeks after the end of the treatment course ([…], 21, and 33 weeks after beginning the NNK exposure), necropsy was performed. […] Lung tumors were evaluated by inspecting formalin-fixed lungs visually and by histology after H & E staining. […] Tumor burden (detected by neoplastic growths [adenomas] observed in lung sections) was also assessed at the week 1 timepoint after treatment. Consistent with reduction in preneoplasia, we observed a decrease in the average number of tumors (a 60% reduction in tumors in the CS3D-treated animal) (FIG. 14A).
# The chemopreventive effect of CS3D compared to CS3M on lung tumor development was studied in an NNK-induced immunocompetent lung tumor model using the tobacco carcinogen, 4-(methylnitrosamino)-1-(3-pyridyl)-1-butanone, CAS Reg. No. 64091-91-4 (NNK) in mice. The advantages of this model are: NNK is an inducer of KRAS mutations, it is known to induce lung cancers in mice and humans, and the model is immunocompetent. In addition, this is a useful model for studying chemoprevention after exposure to a carcinogenic agent (Hecht S S, et al, Cancer Res. (1980) 40(2):298-302).
# After four weeks of NNK exposure, mice are then dosed IV 2 times per week with CS3D or CS3M (5 mg/kg) for eight weeks. The mice are sacrificed after at one week, 8 weeks, and 20 weeks after the end of oligonucleotide dosing to examine lungs. Lungs are formalin-inflated and surface tumors are enumerated visually under a dissecting microscope. The area of each tumor is measured with a analysis tool built in the imaging software LAS v4.7 (Leica). Lungs are also sectioned and examined histologically by hematoxylin and eosin staining for counting the preneoplasia and tumors.
# 201T cells = experiment: Soft agar colony forming assay, 201T; format: cell-based, human
# Description: 1 hr after treatment with EGF.
# Following the transfection protocol described above, cells transfected with either CS3D or CS3M were detached from the plate using Trypsin-EDTA (Life Technologies) and seeded at a density of 2×10^4 cells/well (in a 6-well plate) in soft agar to determine the ability of cells to grow in an anchorage-independent setting. Sea Plaque Agarose (Lonza—Rockland, Maine) was used to prepare 0.8% base agarose layer and a 0.48% upper agarose layer containing the transfected cells. 1 ml of appropriate growth media was added into each well and incubated at growth conditions of 37° C. with 5% CO2. Media was replaced every 3-4 days and colony formation was monitored. After 15-20 days, the media was aspirated, and wells were incubated with crystal violet in 10% formalin for 1 h. Using a dissecting scope, colonies were photographed in a 6-well plate (with 4 quadrants/well) using ImageJ software analysis to automatically count colonies, using 35 pixels as a cut-off.
# T1 sequence (P40763 2-770 limits assumed, one chain of several): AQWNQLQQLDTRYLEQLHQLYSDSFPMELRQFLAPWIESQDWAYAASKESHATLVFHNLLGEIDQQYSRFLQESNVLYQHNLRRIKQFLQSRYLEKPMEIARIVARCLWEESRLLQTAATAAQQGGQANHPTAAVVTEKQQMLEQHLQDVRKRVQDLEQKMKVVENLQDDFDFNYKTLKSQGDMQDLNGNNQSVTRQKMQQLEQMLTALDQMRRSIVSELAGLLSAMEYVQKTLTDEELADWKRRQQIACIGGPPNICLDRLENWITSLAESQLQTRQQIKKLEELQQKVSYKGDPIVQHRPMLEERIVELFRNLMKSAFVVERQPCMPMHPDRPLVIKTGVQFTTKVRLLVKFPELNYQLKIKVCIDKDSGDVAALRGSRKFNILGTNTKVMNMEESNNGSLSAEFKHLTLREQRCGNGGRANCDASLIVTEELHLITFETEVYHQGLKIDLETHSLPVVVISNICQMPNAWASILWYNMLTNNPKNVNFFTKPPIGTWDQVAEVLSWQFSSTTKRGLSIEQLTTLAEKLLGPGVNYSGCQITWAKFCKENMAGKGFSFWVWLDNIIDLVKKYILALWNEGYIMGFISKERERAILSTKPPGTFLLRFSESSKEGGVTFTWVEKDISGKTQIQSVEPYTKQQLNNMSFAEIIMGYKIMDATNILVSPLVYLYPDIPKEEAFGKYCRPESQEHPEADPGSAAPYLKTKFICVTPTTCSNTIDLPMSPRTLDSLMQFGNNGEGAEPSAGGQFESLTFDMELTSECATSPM
substance,measurement,setting,value
"CS3D (DNA GATTTACGGGAAATGCSCATTTCCC; cyclic decoy with two hexaethylene glycol linkers, further chemistry not given here)",toxicity in normal cells,normal lung fibroblasts,minimal
same,IC50 in normal lung fibroblasts and bronchial epithelial cells relative to tumor cells,normal lung fibroblasts; fold higher than in NSCLC cell lines,100 fold
same,ratio of pSTAT3-ubiquitin complex to STAT3 (densitometry),[1],0.95
same,reduction of Bcl-Xl mRNA expression in response to EGF,[2],≥ 60%
same,reduction of c-Myc mRNA expression in response to EGF,[2],≥ 60%
same,inhibition in proliferation,"H1975 cells; 0.3 μM transfection, H1975, relative to CS3M",50%
same,IC50,"H1975 cells; H1975 (mutant EGFR), read-out: IC50",~300 nM
same,IC50,"H1975 cells; H1975, EGFR mutant (L858R/T790M), KRAS WT, read-out: CS3D IC50",300 nM
same,"toxicity (body weight, behavior, liver and spleen)",[3]; 5 mg/kg for 8 weeks,no body weight changes were observed; also recorded: no toxicity observed
same,higher count of preneoplasia,"[3]; 8 weeks after treatment ended, vs CS3M",43%
same,lower number of adenomas,"[3]; 8 weeks post-treatment, vs CS3M",52%
same,reduction in average number of tumors per animal,"[3]; 20 weeks after end of treatment, vs CS3M",approximately 40% and 42%
same,lower tumor size,"[3]; 20 weeks post-treatment, vs CS3M",49.8% and 50%
same,fewer preneoplasias on average per animal,"[3]; week 1 after 8 week treatment, 5 mg/kg, vs CS3M",approximately 25%
same,reduction in average number of tumors,"[3]; week 1 after 8 week treatment, vs CS3M",60%
same,disruption of anchorage-independent growth,"201T cells; 300 nM single transfection, at 20 days, 201T, compared to CS3M",50%
same,reduction of colony formation in soft agar,"201T cells; one transfection, 201T (FIG. 4A)",55%

# Source: patent US11932850B2, “Cancer chemoprevention with STAT3 blockers” (Jill M. Siegfried, LLC, priority 2018, dated 2024)
